{"source": "paper PMC8069330", "about": "“Chirality of Novel Bitopic Agonists Determines Unique Pharmacology at the Dopamine D3 Receptor” (Biomolecules, 2021)", "format_in_all_cases": "cell-based", "key": {"D2R [1]": {"target": "T1, D2R (Homo sapiens, UniProt P14416)", "T1 construct": "expressed in transfected cells; host or cells: HEK293T", "experiment": "BRET-based Go protein activation assay at D2R (10 min)", "details": "10 min; for EC50: read-out: Go Protein Activation Assay pEC50 ± SEM (converted); for Bias Factors D2R: Go protein vs β-arrestin, log10(Emax/EC50)G protein − log10(Emax/EC50)β arrestin"}, "D3R [2]": {"target": "T2, D3R (Homo sapiens, UniProt P35462)", "T2 construct": "expressed in transfected cells; host or cells: HEK293T", "experiment": "BRET-based β-arrestin recruitment assay at D3R (10 min)", "details": "D3R; for EC50: read-out: β-arrestin Recruitment pEC50 ± SEM (converted)"}, "D3R [3]": {"target": "T2, D3R", "experiment": "BRET-based Go protein activation assay at D3R (10 min)", "details": "for Selectivity (D2R/D3R) Go Protein Activation: D3R over D2R selectivity; for EC50: read-out: Go Protein Activation Assay pEC50 ± SEM (converted); for Bias Factors D3R: Go protein vs β-arrestin, log10(Emax/EC50)G protein − log10(Emax/EC50)β arrestin"}, "D2R [4]": {"target": "T1, D2R", "experiment": "BRET-based β-arrestin recruitment assay at D2R (10 min)", "details": "D2R, 10 min; for EC50: read-out: β-arrestin Recruitment pEC50 ± SEM (converted)"}}}
{"smiles": "C[C@H]1CO[C@@H](c2ccc(N)nc2)CN1CCCCOc1ccc2c(c1)NC(=O)CC2", "note": "[AB04-96]", "values": [{"measurement": "Go Protein Activation Assay Change Emax over Quinpirole", "setting": "D2R [1]; D2R", "value": 2.70}, {"measurement": "Go Protein Activation Assay Emax ± SEM (% of Quinpirole)", "setting": "D2R [1]; D2R", "value": "102.7 ± 4.0 % of Quinpirole"}, {"measurement": "Go Protein Activation Assay Fold Potency over Quinpirole", "setting": "D2R [1]; D2R", "value": 0.66, "unit": "fold"}, {"measurement": "EC50", "setting": "D2R [1]; D2R", "value": 52.5, "unit": "nM"}, {"measurement": "Bias Factors D2R", "setting": "D2R [1]", "value": 1.1}, {"measurement": "β-arrestin Recruitment Change Emax over Quinpirole", "setting": "D3R [2]", "value": 4.0}, {"measurement": "β-arrestin Recruitment Fold Potency over Quinpirole", "setting": "D3R [2]", "value": 0.025, "unit": "fold"}, {"measurement": "EC50", "setting": "D3R [2]", "value": 174, "unit": "nM"}, {"measurement": "Go Protein Activation Assay Change Emax over Quinpirole", "setting": "D3R [3]; D3R", "value": 0.4}, {"measurement": "Go Protein Activation Assay Emax ± SEM (% of Quinpirole)", "setting": "D3R [3]; D3R", "value": "100.4 ± 2.7 ^δδδδ % of Quinpirole"}, {"measurement": "Go Protein Activation Assay Fold Potency over Quinpirole", "setting": "D3R [3]; D3R", "value": 0.158, "unit": "fold"}, {"measurement": "Selectivity (D2R/D3R) Go Protein Activation", "setting": "D3R [3]", "value": 2.8, "unit": "fold"}, {"measurement": "EC50", "setting": "D3R [3]; D3R", "value": 18.6, "unit": "nM"}, {"measurement": "Bias Factors D3R", "setting": "D3R [3]", "value": 1.0}, {"measurement": "Higher efficacy compared to quinpirole in D2R mediated β-arrestin recruitment", "setting": "D2R [4]", "value": "~ 22%"}, {"measurement": "β-arrestin Recruitment Change Emax over Quinpirole", "setting": "D2R [4]", "value": 21.6}, {"measurement": "β-arrestin Recruitment Emax ± SEM (% of Quinpirole)", "setting": "D2R [4]", "value": "121.6 ± 8.2 % of Quinpirole"}, {"measurement": "β-arrestin Recruitment Fold Potency over Quinpirole", "setting": "D2R [4]", "value": 0.16, "unit": "fold"}, {"measurement": "EC50", "setting": "D2R [4]", "value": 724, "unit": "nM"}]}
{"smiles": "C[C@H]1CO[C@H](c2ccc(N)nc2)CN1CCCCOc1ccc2c(c1)NC(=O)CC2", "note": "[AB04-95]", "values": [{"measurement": "Activity in D2R Go protein activation (result in words)", "setting": "D2R [1]; D2R", "value": "did not show any activity"}, {"measurement": "D3R mediated β-arrestin recruitment (result in words)", "setting": "D3R [2]", "value": "near complete abolishment"}, {"measurement": "D3R mediated Go protein activation (result in words)", "setting": "D3R [3]; D3R", "value": "near complete abolishment"}, {"measurement": "Activity in D2R β-arrestin recruitment (result in words)", "setting": "D2R [4]", "value": "did not show any activity"}]}
{"smiles": "C[C@H]1COC(c2ccc(N)nc2)CN1CCCCOc1ccc2c(c1)NC(=O)CC2", "note": "(mixture of isomers) [rac-AB04-35]", "values": [{"measurement": "Go Protein Activation Assay Change Emax over Quinpirole", "setting": "D2R [1]; D2R", "value": "−24.10"}, {"measurement": "Go Protein Activation Assay Emax ± SEM (% of Quinpirole)", "setting": "D2R [1]; D2R", "value": "75.9 ± 5.3 % of Quinpirole"}, {"measurement": "Go Protein Activation Assay Fold Potency over Quinpirole", "setting": "D2R [1]; D2R", "value": 0.10, "unit": "fold"}, {"measurement": "EC50", "setting": "D2R [1]; D2R", "value": 331, "unit": "nM"}, {"measurement": "Bias Factors D2R", "setting": "D2R [1]", "value": 0.6}, {"measurement": "β-arrestin Recruitment Change Emax over Quinpirole", "setting": "D3R [2]", "value": "−5.2"}, {"measurement": "β-arrestin Recruitment Emax ± SEM (% of Quinpirole)", "setting": "D3R [2]", "value": "94.8 ± 3.7 ^δδ % of Quinpirole"}, {"measurement": "β-arrestin Recruitment Fold Potency over Quinpirole", "setting": "D3R [2]", "value": 0.009, "unit": "fold"}, {"measurement": "EC50", "setting": "D3R [2]", "value": 490, "unit": "nM"}, {"measurement": "Go Protein Activation Assay Change Emax over Quinpirole", "setting": "D3R [3]; D3R", "value": "−6.1"}, {"measurement": "Go Protein Activation Assay Emax ± SEM (% of Quinpirole)", "setting": "D3R [3]; D3R", "value": "93.9 ± 3.0 ^δδδδ % of Quinpirole"}, {"measurement": "Go Protein Activation Assay Fold Potency over Quinpirole", "setting": "D3R [3]; D3R", "value": 0.051, "unit": "fold"}, {"measurement": "Selectivity (D2R/D3R) Go Protein Activation", "setting": "D3R [3]", "value": 5.8, "unit": "fold"}, {"measurement": "EC50", "setting": "D3R [3]; D3R", "value": 57.5, "unit": "nM"}, {"measurement": "Bias Factors D3R", "setting": "D3R [3]", "value": 0.9}, {"measurement": "β-arrestin Recruitment Change Emax over Quinpirole", "setting": "D2R [4]", "value": 2.80}, {"measurement": "β-arrestin Recruitment Emax ± SEM (% of Quinpirole)", "setting": "D2R [4]", "value": "102.8 ± 2.5 % of Quinpirole"}, {"measurement": "β-arrestin Recruitment Fold Potency over Quinpirole", "setting": "D2R [4]", "value": 0.06, "unit": "fold"}, {"measurement": "EC50", "setting": "D2R [4]", "value": 1820, "unit": "nM"}]}
